Test results as given in patent US20160003837A1, “BIOMARKERS FOR THE PREDICTION OF PRETERM BIRTH” (DUKE UNIVERSITY, priority 2013, published 2016).

Tests used:
[1] = women with a history of spontaneous preterm birth; weekly intramuscular injection; cited from earlier work
[2] = test system: Matrix Metalloprotease 9 (MMP-9) activity in HTR8/SVneo cells; assay: TNF-α-induced MMP-9 activity (zymography); type: cell-based; conditions: for reduction of TNFα-induced MMP-9 activity compared to stimulated controls: MPA pre-treatment
Description: FIGS. 4A-4C show the effect of knocking down PGRMC1 expression on the efficacy of medroxyprogesterone acetate (MPA) pretreatment in HTR8/SVneo cells.
(§1) Progesterone treatment also blunted TNF α-mediated induction of metalloproteinase 9 (MMP-9) activity (data not shown).
The inhibitory effect of MPA pre-treatment on TNFα-induced activity was diminished when compared to cells treated with the scramble siRNA group (see FIGS. 4B&4C). […] However, in the PGRMC1 siRNA group this effect was lost with MPA pre-treatment reducing MMP-9 activity to a lesser degree when compared with stimulated controls (15%, p=0.100). Both the unstimulated (vehicle) control and the MPA groups are shown in the zymogram. The relative MMP-9 activity represents activity in excess of baseline for each experimental group. The unstimulated (vehicle) control only is represented graphically for both siRNA treatments. Experiments were replicated on 5 separate occasions. Data are mean+standard error of the mean.

[3] = women at risk based on shortened cervical length; vaginal; cited from earlier work
HTR8/Sv cells = assay: Calcimycin-induced apoptotic cell death, CELLTITER 96 Aqueous Non-Radioactive Cell Proliferation Assay; type: cell-based; conditions: pretreatment of HTR8/Sv cells; FIG. 1
Description: FIGS. 1A-1B are A) Western blot and B) graph showing calcium-induced cytrotrophoblast apoptotic cell death reduction by progesterone (R5020) pretreatment.
as §1

caspase 3 cleavage = assay: Caspase 3 cleavage following treatment with calcimycin; type: cell-based; conditions: data not shown
PGRMC1 = PGRMC1 (Homo sapiens, UniProt O00264); conditions: cited from earlier work
Chain of PGRMC1 (O00264 whole entry): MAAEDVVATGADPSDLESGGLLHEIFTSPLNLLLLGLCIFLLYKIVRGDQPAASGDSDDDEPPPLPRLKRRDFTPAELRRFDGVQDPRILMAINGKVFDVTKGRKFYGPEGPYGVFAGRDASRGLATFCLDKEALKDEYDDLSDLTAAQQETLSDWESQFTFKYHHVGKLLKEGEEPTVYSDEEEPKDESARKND

Structure (SMILES): CCCCCC(=O)O[C@]1(C(C)=O)CC[C@H]2[C@@H]3CCC4=CC(=O)CC[C@]4(C)[C@H]3CC[C@@]21C [17-OHPC, 17 alpha hydroxyprogesterone caproate]
- reduction in preterm birth rates [1]: 35%

Structure (SMILES): CC(=O)O[C@]1(C(C)=O)CC[C@H]2[C@@H]3C[C@H](C)C4=CC(=O)CC[C@]4(C)[C@H]3CC[C@@]21C [MPA, medroxyprogesterone acetate]
- reduction of TNFα-induced MMP-9 activity compared to stimulated controls ([2]; PGRMC1 siRNA group, p=0.100): 15%
- reduction of TNFα-induced MMP-9 activity compared to stimulated controls ([2]; scramble siRNA group, p<0.008): 45%

Structure (SMILES): CC(=O)[C@H]1CC[C@H]2[C@@H]3CCC4=CC(=O)CC[C@]4(C)[C@H]3CC[C@]12C [Progesterone, progesterone]
- TNF α-mediated induction of MMP-9 activity ([2]; data not shown): blunted
- reduction of the risk of preterm birth [3]: 45%

Structure (SMILES): CCC(=O)[C@@]1(C)CC[C@H]2[C@@H]3CCC4=CC(=O)CCC4=C3CC[C@@]21C [R5020]
- protection against calcium-ionophore calcimycin-induced apoptotic cell death (HTR8/Sv cells): protected the cells
- caspase 3 cleavage following treatment with calcimycin (caspase 3 cleavage): lower caspase 3 cleavage
- binding to PGRMC1 (PGRMC1): high binding
